The NIST ThermoML archive (doi:10.1021/acs.jced.9b00100)
Numbers after ± are expanded uncertainties.

Assays:
[1] = refractive index (Na D-line) (dimensionless); settings: 293.15 K; 101.33 kPa; Liquid; Standard Abbe refractometry
[2] = Liquid, Ebulliometric method (Recirculating still)

CCCCO [butan-1-ol]
refractive index [1]: 1.3989 ± 0.002 | vapor or sublimation pressure ([2]; 342.95 K): 13.4 ± 0.24 kPa | vapor or sublimation pressure ([2]; 352.65 K): 21.4 ± 0.24 kPa | vapor or sublimation pressure ([2]; 362.55 K): 33.4 ± 0.25 kPa

CCCC(C)=O [pentan-2-one]
refractive index [1]: 1.3893 ± 0.002 | vapor or sublimation pressure ([2]; 342.34 K): 32.7 ± 0.34 kPa | vapor or sublimation pressure ([2]; 342.95 K): 34.3 ± 0.34 kPa | vapor or sublimation pressure ([2]; 352.05 K): 47.8 ± 0.27 kPa | vapor or sublimation pressure ([2]; 352.65 K): 48.7 ± 0.27 kPa | vapor or sublimation pressure ([2]; 361.65 K): 66.2 ± 0.31 kPa | vapor or sublimation pressure ([2]; 362.55 K): 68.1 ± 0.31 kPa

CCCO [propan-1-ol]
refractive index [1]: 1.3848 ± 0.002 | vapor or sublimation pressure ([2]; 342.34 K): 31.5 ± 0.29 kPa | vapor or sublimation pressure ([2]; 352.05 K): 49.5 ± 0.31 kPa | vapor or sublimation pressure ([2]; 361.65 K): 73.2 ± 0.33 kPa
